Data: patent US9809625B2, “Immunomodulators” (BRISTOL-MYERS SQUIBB COMPANY, priority 2015, dated 2017)
Bridge positions count the residues as written; N and C are the ends. Square brackets hold non-standard residues; d marks the D form. Peptide text beside a SMILES is read from it. * marks the point of attachment. ξ: configuration not given here. Hyp = O=C(O)[C@@H]1C[C@@H](O)CN1; ξW = NC(Cc1c[nH]c2ccccc12)C(=O)O; NMeNle = CCCC[C@H](NC)C(=O)O; NH(CH2)3NMe2 = CN(C)CCCN*; NMeA = CN[C@@H](C)C(=O)O; Dap = NC[C@H](N)C(=O)O; NH(propargyl) = C#CCN*; X2 = c1cn(CCCN*)cn1; NHCH2CH2OH = OCCN*; NHAllyl = C=CCN*; NHBu = CCCCN*

Molecular target: T1, PD-1-Ig binding to PD-L1-TVMV-His (PD-L1-His) (Homo sapiens, UniProt Q9NZQ7)
T1 construct: hPDL1(19-239)-TVMV-His; TVMV protease cleavage site (C); made in house; host or cells: HEK293T
T1 sequence (Q9NZQ7 with tags, fused parts or gaps): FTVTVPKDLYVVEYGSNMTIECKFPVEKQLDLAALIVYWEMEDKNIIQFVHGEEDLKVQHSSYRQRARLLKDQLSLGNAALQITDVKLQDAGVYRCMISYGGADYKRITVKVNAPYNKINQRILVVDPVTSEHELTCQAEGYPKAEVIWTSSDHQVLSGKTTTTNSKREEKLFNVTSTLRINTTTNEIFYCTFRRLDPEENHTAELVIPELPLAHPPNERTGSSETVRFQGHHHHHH
Experiment: PD-1/PD-L1 Homogenous Time-Resolved Fluorescence (HTRF) binding assay
Details: PD-1-Ig (20 nM)/PD-L1-His (10 nM), range classes
From the text: Methods for Testing the Ability of Macrocyclic Peptides to Compete for the Binding of PD-1 to PD-L1 Using Homogenous Time-Resolved Fluorescence (HTRF) Binding Assays
The ability of the macrocyclic peptides of the present disclosure to bind to PD-L1 was investigated using a PD-1/PD-L1 Homogenous Time-Resolved Fluorescence (HTRF) binding assay.
Homogenous Time-Resolved Fluorescence (HTRF) Assays of Binding of Soluble PD-1 to Soluble PD-L1. Soluble PD-1 and soluble PD-L1 refers to proteins with carboxyl-end truncations that remove the transmembrane-spanning regions and are fused to heterologous sequences, specifically the Fc portion of the human immunoglobuling G sequence (Ig) or the hexahistidine epitope tag (His). All binding studies were performed in an HTRF assay buffer consisting of dPBS supplemented with 0.1% (w/v) bovine serum albumin and 0.05% (v/v) Tween-20. For the PD-1-Ig/PD-L1-His binding assay, inhibitors were pre-incubated with PD-L1-His (10 nM final) for 15 m in 4 μl of assay buffer, followed by addition of PD-1-Ig (20 nM final) in 1 μl of assay buffer and further incubation for 15 m. PD-L1 fusion proteins from either human, cynomologous macaques, mouse, or other species were used. HTRF detection was achieved using europium crypate-labeled anti-Ig monoclonal antibody (1 nM final) and allophycocyanin (APC) labeled anti-His monoclonal antibody (20 nM final). Antibodies were diluted in HTRF detection buffer and 5 μl was dispensed on top of binding reaction. The reaction was allowed to equilibrate for 30 minutes and signal (665 nm/620 nm ratio) was obtained using an EnVision fluorometer. Additional binding assays were established between PD-1-Ig/PD-L2-His (20 and 5 nM, respectively), CD80-His/PD-L1-Ig (100 and 10 nM, respectively) and CD80-His/CTLA4-Ig (10 and 5 nM, respectively). Binding/competition studies between biotinylated Compound No. 71 and human PD-L1-His were performed as follows. Macrocyclic peptide inhibitors were pre-incubated with PD-L1-His (10 nM final) for 60 minutes in 4 μl of assay buffer followed by addition of biotinylated Compound No. 71 (0.5 nM final) in 1 μl of assay buffer. Binding was allowed to equilibrate for 30 minutes followed by addition of europium crypated labeled Streptavidin (2.5 pM final) and APC-labeled anti-His (20 nM final) in 5 μl of HTRF buffer. The reaction was allowed to equilibrate for 30 m and signal (665 nm/620 nm ratio) was obtained using an EnVision fluorometer.
Recombinant Proteins. Carboxyl-truncated human PD-1 (amino acids 25-167) with a C-terminal human Ig epitope tag [hPD-1 (25-167)-3S-IG] and human PD-L1 (amino acids 18-239) with a C-terminal His epitope tag [hPD-L1(19-239)-tobacco vein mottling virus protease cleavage site (TVMV)-His] were expressed in HEK293T cells and purified sequentially by recombinant Protein A affinity chromatography and size exclusion chromatography. Human PD-L2-His (Sino Biologicals), CD80-His (Sino Biologicals), CTLA4-Ig (RnD Systems) were all obtained through commercial sources.

SMILES | IC50 [nM]
CCCC[C@H]1C(=O)N(C)[C@@H](CCCC)C(=O)N[C@@H](CC(C)C)C(=O)N[C@H](C(=O)NCC(=O)NCCO)CSCC(=O)N[C@@H](Cc2ccc(O)cc2)C(=O)N(C)[C@@H](C)C(=O)N[C@@H](CC(N)=O)C(=O)N2CCC[C@H]2C(=O)N[C@@H](CN)C(=O)N[C@@H](CC(C)C)C(=O)N2C[C@H](O)C[C@H]2C(=O)N[C@@H](Cc2c[nH]c3ccccc23)C(=O)NCC(=O)NC(Cc2c[nH]c3ccccc23)C(=O)N1C (stereo partly drawn) [Example 13095] ({CH2CO}-Y[NMeA]NP[Dap]L[Hyp]WG[ξW][NMeNle][NMeNle]LCG-NHCH2CH2OH; thioether N-14) | 10 to 60
C#CCNC(=O)CNC(=O)[C@@H]1CSCC(=O)N[C@@H](Cc2ccc(O)cc2)C(=O)N(C)[C@@H](C)C(=O)N[C@@H](CC(N)=O)C(=O)N2CCC[C@H]2C(=O)N[C@@H](CN)C(=O)N[C@@H](CC(C)C)C(=O)N2C[C@H](O)C[C@H]2C(=O)N[C@@H](Cc2c[nH]c3ccccc23)C(=O)NCC(=O)NC(Cc2c[nH]c3ccccc23)C(=O)N(C)[C@@H](CCCC)C(=O)N(C)[C@@H](CCCC)C(=O)N[C@@H](CC(C)C)C(=O)N1 (stereo partly drawn) [Example 13096] ({CH2CO}-Y[NMeA]NP[Dap]L[Hyp]WG[ξW][NMeNle][NMeNle]LCG-{NH(propargyl)}; thioether N-14) | 10 to 60
C=CCNC(=O)CNC(=O)[C@@H]1CSCC(=O)N[C@@H](Cc2ccc(O)cc2)C(=O)N(C)[C@@H](C)C(=O)N[C@@H](CC(N)=O)C(=O)N2CCC[C@H]2C(=O)N[C@@H](CN)C(=O)N[C@@H](CC(C)C)C(=O)N2C[C@H](O)C[C@H]2C(=O)N[C@@H](Cc2c[nH]c3ccccc23)C(=O)NCC(=O)NC(Cc2c[nH]c3ccccc23)C(=O)N(C)[C@@H](CCCC)C(=O)N(C)[C@@H](CCCC)C(=O)N[C@@H](CC(C)C)C(=O)N1 (stereo partly drawn) [Example 13097] ({CH2CO}-Y[NMeA]NP[Dap]L[Hyp]WG[ξW][NMeNle][NMeNle]LCG-NHAllyl; thioether N-14) | 10 to 60

The remaining lines, values ahead:

IC50 [nM] | SMILES
10 to 60 | CCCC[C@H]1C(=O)N(C)[C@@H](CCCC)C(=O)N[C@@H](CC(C)C)C(=O)N[C@H](C(=O)NCC(=O)NCCCN(C)C)CSCC(=O)N[C@@H](Cc2ccc(O)cc2)C(=O)N(C)[C@@H](C)C(=O)N[C@@H](CC(N)=O)C(=O)N2CCC[C@H]2C(=O)N[C@@H](CN)C(=O)N[C@@H](CC(C)C)C(=O)N2C[C@H](O)C[C@H]2C(=O)N[C@@H](Cc2c[nH]c3ccccc23)C(=O)NCC(=O)NC(Cc2c[nH]c3ccccc23)C(=O)N1C (stereo partly drawn) [Example 13098] ({CH2CO}-Y[NMeA]NP[Dap]L[Hyp]WG[ξW][NMeNle][NMeNle]LCG-{NH(CH2)3NMe2}; thioether N-14)
10 to 60 | CCCC[C@H]1C(=O)N(C)[C@@H](CCCC)C(=O)N[C@@H](CC(C)C)C(=O)N[C@H](C(=O)NCC(=O)NCCCn2ccnc2)CSCC(=O)N[C@@H](Cc2ccc(O)cc2)C(=O)N(C)[C@@H](C)C(=O)N[C@@H](CC(N)=O)C(=O)N2CCC[C@H]2C(=O)N[C@@H](CN)C(=O)N[C@@H](CC(C)C)C(=O)N2C[C@H](O)C[C@H]2C(=O)N[C@@H](Cc2c[nH]c3ccccc23)C(=O)NCC(=O)NC(Cc2c[nH]c3ccccc23)C(=O)N1C (stereo partly drawn) [Example 13099] ({CH2CO}-Y[NMeA]NP[Dap]L[Hyp]WG[ξW][NMeNle][NMeNle]LCG-X2; thioether N-14)
10 to 60 | CCCCNC(=O)CNC(=O)[C@@H]1CSCC(=O)N[C@@H](Cc2ccc(O)cc2)C(=O)N(C)[C@@H](C)C(=O)N[C@@H](CC(N)=O)C(=O)N2CCC[C@H]2C(=O)N[C@@H](CN)C(=O)N[C@@H](CC(C)C)C(=O)N2C[C@H](O)C[C@H]2C(=O)N[C@@H](Cc2c[nH]c3ccccc23)C(=O)NCC(=O)NC(Cc2c[nH]c3ccccc23)C(=O)N(C)[C@@H](CCCC)C(=O)N(C)[C@@H](CCCC)C(=O)N[C@@H](CC(C)C)C(=O)N1 (stereo partly drawn) [Example 13100] ({CH2CO}-Y[NMeA]NP[Dap]L[Hyp]WG[ξW][NMeNle][NMeNle]LCG-NHBu; thioether N-14)
